We go through eleven molecules from PubChem BioAssay (NCI).

Some test systems named below: SK-MEL-28 melanoma; EKVX NSCLC; RXF 393 renal; TK-10 renal; M14 melanoma; IGROV1 ovarian; MCF7 breast; MDA-MB-231 breast.
What all share (test): NCI tumour cell line growth inhibition, 48 h

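How tested: cells in 96-well plates exposed to compound for 48 hours at five concentrations. GI50 marks 50% less growth. TGI is the concentration that stops growth completely.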

Regarding `Cc1c(C(=O)O)n(C)c(=O)n(C)c1=O`, the TGI in the assay on SK-MEL-28 melanoma, in the assay on EKVX NSCLC, in the assay on RXF 393 renal, with TK-10 renal, in the assay on M14 melanoma and with IGROV1 ovarian was more than 100 µM throughout.
Consider `CCCOC(=O)c1c(C)n(C)c2scc[n+]12`, for which the GI50 was more than 100 µM with SK-MEL-28 melanoma; 13.7 µM with EKVX NSCLC; 31.2 µM with MCF7 breast; more than 100 µM with MDA-MB-231 breast; more than 100 µM in the assay on TK-10 renal; more than 100 µM with M14 melanoma. Besides, the TGI in the assay on SK-MEL-28 melanoma, in the assay on EKVX NSCLC, in the assay on MCF7 breast, with MDA-MB-231 breast, in the assay with TK-10 renal and in the assay on M14 melanoma was more than 100 µM in each case. Moreover, the TGI in the assay on IGROV1 ovarian came to 22.9 µM.
Consider `Cn1cc(C2=C(c3c[nH]c4ccccc34)C(=O)NC2=O)c2ccccc21`, for which the GI50 with SK-MEL-28 melanoma was 7 µM; in the assay on RXF 393 renal, 0.198 µM; in the assay with MCF7 breast it was 0.278 µM; in the assay with MDA-MB-231 breast, 9.06 µM; in the assay with TK-10 renal it was 0.132 µM; with M14 melanoma, 1.24 µM. In addition, in the assay with IGROV1 ovarian, the GI50 was 0.975 µM. In addition, the TGI with SK-MEL-28 melanoma was more than 25 µM; with RXF 393 renal, 1.96 µM; in the assay with MCF7 breast it was more than 25 µM; in the assay with MDA-MB-231 breast, more than 25 µM; in the assay with TK-10 renal, more than 25 µM; with M14 melanoma, more than 25 µM. The molecule also displayed a TGI in the assay on IGROV1 ovarian of more than 25 µM.
In the case of `CSc1nc2nc3c(nc2c(=O)n1C)C(=O)c1ccccc1C3=O`, the GI50 in the assay on SK-MEL-28 melanoma is 0.188 µM; in the assay on RXF 393 renal, 0.253 µM; in the assay on MCF7 breast, 0.162 µM; with MDA-MB-231 breast it was 0.256 µM; in the assay on TK-10 renal, 0.766 µM; in the assay with M14 melanoma, 0.0994 µM. Moreover, in the assay on IGROV1 ovarian, the GI50 was 0.271 µM. Also, the TGI in the assay on SK-MEL-28 melanoma is 0.452 µM; in the assay with RXF 393 renal it was 0.819 µM; in the assay on MCF7 breast, 0.384 µM; with MDA-MB-231 breast it was 0.974 µM; with TK-10 renal, 2.1 µM; in the assay on M14 melanoma, 0.252 µM. Besides, the TGI in the assay with IGROV1 ovarian was found to be 0.778 µM.
With `COc1ccc(-c2ccc(/C=N/n3c(COc4ccccc4Cl)nn(CN4CCOCC4)c3=S)o2)c([N+](=O)[O-])c1`, the GI50 is 46 µM in the assay on SK-MEL-28 melanoma; 54.9 µM in the assay with EKVX NSCLC; 22.3 µM in the assay with RXF 393 renal; 19.4 µM with MCF7 breast; 14.9 µM in the assay with TK-10 renal; 22.3 µM in the assay on M14 melanoma. For the same molecule, the GI50 in the assay with IGROV1 ovarian is 59.5 µM. For the same molecule, the TGI with SK-MEL-28 melanoma is more than 100 µM; in the assay with EKVX NSCLC, more than 100 µM; with RXF 393 renal, 61.6 µM; in the assay on MCF7 breast, 47.4 µM; in the assay on TK-10 renal, 47.9 µM; with M14 melanoma, 55.8 µM. Further, in the assay with IGROV1 ovarian, the TGI is more than 100 µM.
As for `COc1cc(C2C3=C(COC3=O)N(CCO)c3cc4c(cc32)OCCO4)cc(OC)c1OC` (configuration not stated), the GI50 in the assay on SK-MEL-28 melanoma was more than 50 µM; in the assay on EKVX NSCLC, 0.413 µM; in the assay on MCF7 breast it was 0.192 µM; in the assay with MDA-MB-231 breast it was 0.185 µM; with M14 melanoma, 0.181 µM; with IGROV1 ovarian it was 0.165 µM. In addition, the TGI was more than 50 µM with SK-MEL-28 melanoma; more than 50 µM in the assay with EKVX NSCLC; more than 50 µM in the assay with MCF7 breast; 2.72 µM in the assay with MDA-MB-231 breast; 0.898 µM in the assay on IGROV1 ovarian.
As for `COc1ccc(/C=C/c2c(C(=O)/C=C/c3ccc(C(F)(F)F)cc3)c(C)nc3ccccc23)cc1`, the GI50 in the assay on SK-MEL-28 melanoma was 1.82 µM; in the assay on EKVX NSCLC, 1.72 µM; in the assay on RXF 393 renal, 1.74 µM; in the assay with MCF7 breast it was 1 µM; with TK-10 renal, 2.56 µM; in the assay with IGROV1 ovarian, 0.466 µM. For the same molecule, the TGI worked out at 3.47 µM in the assay with SK-MEL-28 melanoma; 4.49 µM in the assay on EKVX NSCLC; 3.52 µM in the assay on RXF 393 renal; 3.4 µM in the assay with MCF7 breast; 4.38 µM in the assay with TK-10 renal; 2.39 µM in the assay with IGROV1 ovarian.
As for `CCOC(=O)C(Cc1ccc(N(CCCl)CCCl)cc1)NC(=O)C(Cc1ccccc1)NC=O` (configuration not stated), the TGI with EKVX NSCLC came out at 0.538 µM; in the assay with RXF 393 renal it was 0.226 µM; with MCF7 breast, 0.502 µM; in the assay on MDA-MB-231 breast it was 0.344 µM; in the assay with TK-10 renal, 0.275 µM; in the assay with M14 melanoma, 0.31 µM. For the same molecule, in the assay with IGROV1 ovarian, the TGI came to 0.222 µM.
For `C#C[C@@]1(O)[C@@H](CO)O[C@@H](n2cc(I)c3c(N)ncnc32)[C@@H]1O`, the GI50 was 1.96 µM in the assay with SK-MEL-28 melanoma; 0.408 µM in the assay on EKVX NSCLC; 0.44 µM in the assay on RXF 393 renal; less than 0.0117 µM in the assay with MCF7 breast; 0.185 µM in the assay with MDA-MB-231 breast; 0.551 µM in the assay on TK-10 renal. Besides, the GI50 in the assay with M14 melanoma was 0.49 µM. For the same molecule, the TGI in the assay on SK-MEL-28 melanoma was 11.4 µM; with EKVX NSCLC it was 5.37 µM; in the assay with RXF 393 renal, 2.26 µM; with MCF7 breast, more than 100 µM; in the assay with MDA-MB-231 breast it was more than 100 µM; in the assay with TK-10 renal, 5.51 µM. For the same molecule, the TGI in the assay on M14 melanoma is 9.51 µM.
As for `COc1cc(OC)cc(C2C3=C(COC3=O)Nc3cc(OC)ccc32)c1` (configuration not stated), the GI50 is less than 0.01 µM with SK-MEL-28 melanoma; less than 0.01 µM in the assay on EKVX NSCLC; less than 0.01 µM in the assay on MCF7 breast; less than 0.0128 µM in the assay with MDA-MB-231 breast; 22.2 µM with TK-10 renal; less than 0.01 µM with M14 melanoma. Also, in the assay with IGROV1 ovarian, the GI50 is less than 0.01 µM. Moreover, the TGI with SK-MEL-28 melanoma is more than 94.2 µM; with EKVX NSCLC it was more than 100 µM; in the assay on MCF7 breast it was 19.9 µM; in the assay with TK-10 renal, more than 92.5 µM; in the assay on M14 melanoma it was 0.0111 µM; with IGROV1 ovarian, more than 94.5 µM.
As to `O=C(NNc1ccc(Cl)cc1)C1CCC(CNS(=O)(=O)c2ccccc2Cl)CC1` (configuration not stated), the GI50 in the assay with EKVX NSCLC is 11 µM; in the assay on RXF 393 renal it was 24.5 µM; in the assay on MCF7 breast it was 4.88 µM; in the assay on MDA-MB-231 breast, 4.63 µM; in the assay on TK-10 renal it was 0.453 µM; with M14 melanoma it was 2.89 µM. For the same molecule, in the assay on IGROV1 ovarian, the GI50 is 42.5 µM. The TGI in the assay on EKVX NSCLC is 56.2 µM; with RXF 393 renal it was 65.7 µM; in the assay on MCF7 breast it was more than 100 µM; with MDA-MB-231 breast, 29 µM; in the assay on TK-10 renal, 6.68 µM; with M14 melanoma, 10.7 µM. In the assay with IGROV1 ovarian, the TGI was more than 100 µM.
